Results: ChEMBL document CHEMBL1201862, “PubChem BioAssay data set” (2004)
Activity calls are given as the source filed them. Rule as the data show it, for most assays here: actives have a measured EC50 and inactives only a lower limit.

Tests used:
[1] = test system: Streptococcus sp. 'group A'; assay: Streptococcus pyogenes SK(-)GAS viability under kanamycin – luminescence, BacTiterGlo, confirmation, counter-screen for streptokinase expression inhibitor project, dose response (AID 1900); type: functional, organism-based
[2] = target: T1, Streptokinase A (Streptococcus pyogenes serotype M1, UniProt P10520); assay: viability-normalized secreted streptokinase activity reduction – plasminogen activation absorbance, OD405, dose response (AID 1914); type: functional, Streptococcus pyogenes M1 GAS;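 also: secreted streptokinase activity via plasminogen activation per viability signal from cell pellet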
T1 sequence (P10520 whole entry): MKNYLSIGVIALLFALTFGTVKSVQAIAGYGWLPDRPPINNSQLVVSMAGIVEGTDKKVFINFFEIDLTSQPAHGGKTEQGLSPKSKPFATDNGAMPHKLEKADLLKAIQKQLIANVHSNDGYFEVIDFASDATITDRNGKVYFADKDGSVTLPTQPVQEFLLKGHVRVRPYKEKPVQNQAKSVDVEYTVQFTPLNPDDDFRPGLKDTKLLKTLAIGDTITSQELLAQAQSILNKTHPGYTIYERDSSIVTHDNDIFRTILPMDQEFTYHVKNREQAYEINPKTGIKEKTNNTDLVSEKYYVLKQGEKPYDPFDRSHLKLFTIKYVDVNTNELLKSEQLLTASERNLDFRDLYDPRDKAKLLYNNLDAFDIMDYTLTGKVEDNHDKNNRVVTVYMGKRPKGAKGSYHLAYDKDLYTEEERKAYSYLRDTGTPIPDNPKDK

[3] = test system: Streptococcus; assay: GAS UMAA2166 growth inhibition – luminescence, BacTiterGlo, counter-screen for streptokinase expression inhibitor project, dose response (AID 1915); type: functional, organism-based;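 also: potency for reduction of bacterial viability or growth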
[4] = Luminescence Cell-Based Dose Retest to Confirm Inhibitors of Cancer Stem Cells. [Related pubchem assays (depositor defined):AID2717, AID2721]; type: functional; conditions: Homo sapiens
[5] = target: Cysteine protease ATG4B (Homo sapiens, UniProt Q9Y4P1); type: functional;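 also: Fluorescence-based dose-response confirmation assay measuring inhibition of ATG4B activity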
Sequence of Cysteine protease ATG4B (Q9Y4P1 whole entry): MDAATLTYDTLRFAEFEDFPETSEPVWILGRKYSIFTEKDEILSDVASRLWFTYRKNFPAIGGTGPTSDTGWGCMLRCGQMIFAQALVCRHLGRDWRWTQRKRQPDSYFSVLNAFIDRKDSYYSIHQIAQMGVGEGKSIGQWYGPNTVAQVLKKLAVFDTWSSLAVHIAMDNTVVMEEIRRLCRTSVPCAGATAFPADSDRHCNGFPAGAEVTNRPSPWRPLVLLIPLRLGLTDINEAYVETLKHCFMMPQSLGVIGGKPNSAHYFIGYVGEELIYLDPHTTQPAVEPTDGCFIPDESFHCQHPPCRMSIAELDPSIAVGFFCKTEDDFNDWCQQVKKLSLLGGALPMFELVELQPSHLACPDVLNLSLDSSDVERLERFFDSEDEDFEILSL

[6] = target: Phospholipase A2 (Homo sapiens, UniProt P04054); type: functional;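 also: confirmatory dose-response counterscreen on phospholipase A2, testing hits that came from an ultra-high-throughput screen for ATG4B inhibitors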
Sequence of Phospholipase A2 (P04054 whole entry): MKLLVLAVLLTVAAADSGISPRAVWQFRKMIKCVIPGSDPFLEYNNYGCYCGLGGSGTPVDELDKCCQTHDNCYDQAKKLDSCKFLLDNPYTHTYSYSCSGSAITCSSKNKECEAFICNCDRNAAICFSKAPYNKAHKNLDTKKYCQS

[7] = target: T2, Corticotropin-releasing factor receptor 2/Corticotropin-releasing factor-binding protein (Homo sapiens, UniProt P24387+Q13324); assay: activators of CRF receptor 2 with binding protein – uHTS hits, confirmation (AID 602473); type: functional; conditions: read-out: EC50_Mean
T2 sequence (Q13324 whole entry): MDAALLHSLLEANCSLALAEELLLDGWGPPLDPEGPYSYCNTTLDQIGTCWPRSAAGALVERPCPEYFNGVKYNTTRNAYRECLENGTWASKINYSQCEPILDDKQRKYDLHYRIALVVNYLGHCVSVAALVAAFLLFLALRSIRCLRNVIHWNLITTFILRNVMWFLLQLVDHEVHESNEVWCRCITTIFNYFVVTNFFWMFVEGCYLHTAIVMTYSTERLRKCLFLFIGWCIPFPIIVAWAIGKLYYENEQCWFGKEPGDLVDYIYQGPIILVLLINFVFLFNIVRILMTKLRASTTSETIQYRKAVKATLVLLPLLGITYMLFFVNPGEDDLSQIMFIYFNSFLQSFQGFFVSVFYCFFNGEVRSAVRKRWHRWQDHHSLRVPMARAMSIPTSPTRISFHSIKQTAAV
T2 sequence (P24387 whole entry): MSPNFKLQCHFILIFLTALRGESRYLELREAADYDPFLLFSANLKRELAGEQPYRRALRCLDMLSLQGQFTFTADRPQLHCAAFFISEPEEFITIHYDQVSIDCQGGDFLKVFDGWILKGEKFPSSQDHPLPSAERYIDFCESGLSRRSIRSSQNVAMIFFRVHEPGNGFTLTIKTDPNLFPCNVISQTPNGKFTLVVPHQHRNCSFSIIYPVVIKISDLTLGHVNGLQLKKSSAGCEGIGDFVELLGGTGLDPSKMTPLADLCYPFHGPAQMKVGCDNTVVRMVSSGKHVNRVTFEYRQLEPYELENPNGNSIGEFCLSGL
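For AC50 in this document: cells exposed to compound for roughly 70 hours or longer before luminescence read.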

Cc1cc(C)cc(-n2c(C)cc(/C=C3\C(=N)N4N=C(CC(C)C)SC4=NC3=O)c2C)c1
EC50 [1]: 4.57 µM (active) | EC50 [2]: > 50 µM (not active) | EC50 [3]: 9.46 µM (active) | AC50 [4]: 2.82 µM (active) | IC50 [5]: 3.65 µM (active) | IC50 [6]: 2.3 µM (active) | EC50 [7]: 6.77 µM (active)
